Test results from patent publication US12486246B2, “Replication protein A (RPA)-DNA interaction inhibitors” (THE TRUSTEES OF INDIANA UNIVERSITY, priority 2019, dated 2025).
Values after ≈ are worked out from the molar mass of the structure shown.

Key:
[1] = target: T1, full length heterotrimeric human RPA (Homo sapiens, UniProt P27694); experiment: Electrophoretic mobility shift assay (EMSA), binding of full length human RPA to ssDNA; conditions: full length human RPA binding to DNA, mean ± SD of minimum triplicate experiments
T1 construct: Full length, heterotrimeric human RPA (fl-RPA) and DBD-A/B constructs were expressed and purified; made in house
Protocol: (§1) Full length, heterotrimeric human RPA (fl-RPA) and DBD-A/B constructs were expressed and purified according to previously described protocol. The DBD-A/B construct was expressed as a His6-RPA181-422 fusion protein. E. coli BL21 (DE3) cells in log growth were induced for 3 h with 0.5 mM IPTG at 37° C. The cells were lysed via sonication in buffer containing 20 mM Tris pH 7.5, 500 mM NaCl, 10 mM b-mercaptoethanol, supplemented with 25 μg/mL lysozyme, 1 μg/mL leupeptin, 1 μg/mL pepstatin and 0.5 mM PMSF. The lysate was applied to a 20 mL phosphocellulose column equilibrated in the same buffer and the flow-through material collected, brought to 5 mM Imidazole and loaded onto a 2 ml Ni-NTA column. The column was washed and proteins eluted on with a gradient from 50 mM to 500 mM imidazole. Fractions were assessed by EMSA and SDS-PAGE and DBD-A/B containing fraction were pool, dialyzed against buffer containing 50 mM HEPES pH 7.0, 500 mM NaCl and 1 mM DTT and stored at −80° C.
(§2) EMSAs were carried out using previously described procedure with the following modification. EMSA reactions (20 μL) were performed with 50 nM fl-RPA and 2.5 nM 5′ [^32P]-labeled 34-base DNA in buffer containing 20 mM HEPES (pH 7.8), 1 mM DTT, 0.001% NP-40, 50 mM NaCl. Chemical compounds were suspended in DMSO and DMSO concentration in the reaction mixture was kept constant at 2% or below 5%. RPA was incubated with inhibitor or DMSO control in reaction buffer for 30 min before the addition of DNA. Reactions were incubated for 5 min at room temperature and products separated via 6% native polyacrylamide gel electrophoresis. The bound and unbound fractions were then quantified by phosphor-imager analysis using ImageQuant software (Molecular Dynamics, CA) and IC50 values calculated by non-linear regression using SigmPlot (Sysat). For EMSA reactions with RPA DBD-A/B, 150 nM DBD-A/B was used, and electrophoresis was performed at 4° C. All other conditions were identical to those described for the full-length RPA.
Purified full length heterotrimeric human RPA protein was used to screen a series of analogs in an electrophoretic mobility shift assay (EMSA) measuring direct binding to a ss-DNA substrate. Quantification of the EMSA data and additional concentration dependent analysis to measure IC50 values of newly synthesized analogs provided potential insight into the structure-activity relationships (Table 1 and 2). […] Fluorine and trifluoromethyl substituents were included in pyridinyl compounds 28-29.

[2] = target: T2, RPA DBD-A/B construct (His6-RPA181-422 of RPA70) (Homo sapiens, UniProt P27694); experiment: EMSA, binding of RPA DBD-A/B construct to DNA; conditions: mean ± SD, read-out: RPAA/B IC50
T2 construct: The DBD-A/B construct was expressed as a His6-RPA181-422 fusion protein; His6 (N); made in house; host or cells: E. coli BL21 (DE3)
Protocol: as §1, §2
These domains are compact modular domains populated with hydrophobic and basic DNA binding amino acid residues and have great potential to influence binding of the compounds to the RPA70 subunit. RPA DBD-A/B construct was purified via Ni-affinity chromatography. The activity of compounds 23-27 was evaluated on purified DBD-A/B construct using EMSA.

[3] = system: sonicated salmon sperm DNA; experiment: Fluorescent intercalator displacement (FID) assay, SYBR-Green; type: binding; conditions: 25 mM MOPS pH 6.5
Protocol: The analysis of compound interactions with DNA was determined by inhibition of SYBR-Green intercalation into DNA as we have previously described. Briefly, reactions were performed in 25 mM MOPS (pH 6.5) containing sonicated salmon sperm DNA (8.29 ng/μL), SYBR-Green, and the indicated concentrations of RPA inhibitors. Reactions were conducted in black 96-well plates. Doxorubicin, a known noncovalent DNA binding chemotherapeutic, was used as a positive control. Fluorescence was measured using a BioTek® Synergy™ H1 hybrid multi-mode microplate reader with an excitation wavelength of 485 nm, emission wavelength of 528 nm, and a read height of 7 mm. Data were collected using BioTek® Gen5™ reader software. Reactions were incubated a maximum of 5 min before measurements were collected.
In order to probe the potential role of DNA intercalation as a mechanism for RPA inhibition, compounds 19, 23, 26, 27, 43 and 45 were analyzed using FID assay along with doxorubicin (Dox) as a positive control. […] In addition, direct binding of 9 derivatives to the target protein was assessed using a differential scan fluorimetry (DSF) assay. This assay assesses the melting profile of a protein at increasing temperatures via fluorescent dye binding. The direct interaction of a small molecule to the target protein can either increase or decrease the melting temperature (Tm) of the target depending on the specific protein and their interactions. […] Heparin sulfate, a known RPA interacting molecule often used in the purification of the protein was used as a control. […] (data not shown). […] (FIG. 1B).

H460 NSCLC cells [4] = experiment: Cellular uptake measurement by LC/MS; type: in vitro ADME; conditions: 20 μM, 4 hours, 37° C.
Protocol: All cells were grown as monolayers at 37° C. with 5% CO2 in media containing 20% fetal bovine serum and 0.1% pen/strep. Cellular uptake was assessed in both H460 NSCLC and SKGT4 esophageal adenocarcinoma cells. Briefly, cells were plated in 35 mm dishes at 1×10^6 cells well and incubated overnight. Compounds were added to the medium at a concentration of 20 μM incubation continued for 4 hours. Media was removed and cells washed 3× with PBS. 1 mL of methanol was added per well and cells agitated overnight at 4° C. The methanol was collected, wells washed with an additional 1 ml of methanol and pooled. The compounds were dried under vacuum, suspended in methanol and quantified by LC/MS.
Cellular uptake of our compounds in H460 NSCLC cells was analyzed (FIG. 3B). Initially, compounds were first solubilized in 100% DMSO then diluted in aqueous buffer of media to achieve the desired concentrations, the final DMSO concentration was 1% or less in all experiments. Cells were treated with a fixed concentration (20 μM) for 4 hours at 37° C. The intracellular drug concentrations were determined following extraction with ice cold MeOH and analysis via LC and LC/MS. […] Similar uptake data was also obtained in the SKGT4 esophageal adenocarcinoma cell line.

H460 NSCLC cells [5] = experiment: Cell survival, CCK-8 metabolic assay, single agent; type: cell-based
Protocol: Cell survival was determined by CCK-8 viability assay and/or clonogenic survival assay in 96 well plates or 24 well plates, respectively and combination index (CI) analysis of drug-drug interactions determined by Chou-Talalay analysis as we have previously described. • 1) CCK-8 metabolic assay: Cells were plated (2500 cells/well) in 96-well plate and allowed to grow for at least 18 hours in at 37° C. in the presence of 5% CO2 before treatment with inhibitor for 48 hours. CCK-8 solution (Dojindo) was added to 10% of the total media volume and after 1-4 hours of incubation absorbance at 450 nm was determined using BioTek® Synergy™ H1 hybrid multi-mode microplate reader • 2) Clonogenic survival assay: Cells were plated in a 24 well (20,000 cells/well) plate, incubated for at least 18 hours and then treated with inhibitor. […] Images of the stained colonies were captured with a Fuji LAS-3000 CCD system then counted using OpenCFU software. Viability is determined as a percent of vehicle controls and plotted versus drug concentration. • 3) Assessment of synergy via combination index (CI): In the combination index studies, cells (H460 or SKGT4) were treated with RPA inhibitor and Pt/etoposide/bleomycin/taxol/DDR inhibitor alone as well as the combination of both—the inhibitor and the DNA damaging chemotherapeutic agent/DDR inhibitor. […]

[6] = Aqueous solubility as a function of pH; type: physicochemical; conditions: thermodynamic from solid
Protocol: Aqueous solubility was determined by suspending compound in un-buffered water with stirring. Insoluble material was removed by sedimentation or filtration and soluble compound quantified by absorbance spectroscopy and LC/MS. pH dependence was determined by suspending compound in 10 mM citrate buffer at pH 4.0 or 10 mM phosphate […] as described above in the description.
The morpholine ring is commonly introduced into solvent exposed regions as a privileged solubilizing group to improve solubility or pharmacokinetic properties including metabolic stability of a prospective drug scaffold which is exemplified by many FDA approved drugs. Modifications on Ring A had less of an effect than the morpholino modifications at the alkyl carboxylic acid side chain. To determine the effect of pH on solubility, we prepared solution at 1 mM in citrate buffer at pH 4, phosphate buffer at pH 7 and carbonate buffer at pH 9.5.

H460 NSCLC cells [7] = experiment: Combination index (Chou-Talalay), CCK-8 assay; type: cell-based; conditions: CI <1.0 = synergy
Protocol: Cell survival was determined by CCK-8 viability assay and/or clonogenic survival assay in 96 well plates or 24 well plates, respectively and combination index (CI) analysis of drug-drug interactions determined by Chou-Talalay analysis as we have previously described. • 1) CCK-8 metabolic assay: Cells were plated (2500 cells/well) in 96-well plate and allowed to grow for at least 18 hours in at 37° C. in the presence of 5% CO2 before treatment with inhibitor for 48 hours. CCK-8 solution (Dojindo) was added to 10% of the total media volume and after 1-4 hours of incubation absorbance at 450 nm was determined using BioTek® Synergy™ H1 hybrid multi-mode microplate reader • 2) Clonogenic survival assay: Cells were plated in a 24 well (20,000 cells/well) plate, incubated for at least 18 hours and then treated with inhibitor. After 48 hours of treatment, the cells are re-plated in 10 cm dishes (500 cells/dish) and incubated for 8-10 days to allow colony formation. Plates are washed with PBS, fixed with glutaraldehyde and stained with crystal violet. Images of the stained colonies were captured with a Fuji LAS-3000 CCD system then counted using OpenCFU software. Viability is determined as a percent of vehicle controls and plotted versus drug concentration. • 3) Assessment of synergy via combination index (CI): In the combination index studies, cells (H460 or SKGT4) were treated with RPA inhibitor and Pt/etoposide/bleomycin/taxol/DDR inhibitor alone as well as the combination of both—the inhibitor and the DNA damaging chemotherapeutic agent/DDR inhibitor. The range of treatment was dependent on the IC50 of each inhibitor/drug. If the IC50 was X, then the cells were treated at a range of 0.04× to 5× concentration in a CCK-8 metabolic assay. The kill curves from both the single agent treatments as well as the combination treatment were used in a Chou-Talalay based method to determine the combination index (CI) at different fractions of cells affected.^40 A CI>1.0 indicates antagonism between the two agents, while a CI<1.0 indicates synergy.
Inhibiting RPA can act synergistically with DNA damaging therapeutics including cisplatin and etoposide (FIG. 4C). In these studies, we used the Chou-Talalay method, which provides a combination index (CI) that quantifies synergistic activity for each drug combination. […] The synergistic activity of compounds described herein with DNA damaging agents may be explained by RPA's role in the DNA damage response and signaling.

T1 sequence (P27694 whole entry): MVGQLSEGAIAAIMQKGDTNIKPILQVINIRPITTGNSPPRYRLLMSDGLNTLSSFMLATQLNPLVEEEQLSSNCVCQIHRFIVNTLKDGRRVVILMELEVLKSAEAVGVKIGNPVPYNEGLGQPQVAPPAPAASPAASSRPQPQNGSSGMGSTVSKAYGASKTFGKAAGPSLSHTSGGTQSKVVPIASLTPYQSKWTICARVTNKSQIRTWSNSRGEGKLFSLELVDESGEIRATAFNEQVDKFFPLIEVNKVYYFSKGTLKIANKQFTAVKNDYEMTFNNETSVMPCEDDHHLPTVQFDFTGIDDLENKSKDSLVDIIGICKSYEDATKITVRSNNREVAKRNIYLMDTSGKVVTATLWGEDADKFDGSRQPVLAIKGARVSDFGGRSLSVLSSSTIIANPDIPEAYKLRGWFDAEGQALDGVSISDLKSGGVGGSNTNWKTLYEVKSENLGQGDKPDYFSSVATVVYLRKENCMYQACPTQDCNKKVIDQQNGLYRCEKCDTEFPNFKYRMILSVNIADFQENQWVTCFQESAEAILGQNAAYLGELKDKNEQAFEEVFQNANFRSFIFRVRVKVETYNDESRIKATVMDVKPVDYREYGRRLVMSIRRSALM
T1 sequence (P15927 whole entry partner): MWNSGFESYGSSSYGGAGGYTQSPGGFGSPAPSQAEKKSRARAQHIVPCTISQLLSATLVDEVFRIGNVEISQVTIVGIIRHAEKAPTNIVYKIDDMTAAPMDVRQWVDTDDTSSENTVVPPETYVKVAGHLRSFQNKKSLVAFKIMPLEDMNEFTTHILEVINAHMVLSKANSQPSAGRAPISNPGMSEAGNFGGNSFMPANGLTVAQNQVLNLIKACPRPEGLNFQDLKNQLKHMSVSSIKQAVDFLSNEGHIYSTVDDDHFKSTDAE
T1 sequence (P35244 whole entry partner): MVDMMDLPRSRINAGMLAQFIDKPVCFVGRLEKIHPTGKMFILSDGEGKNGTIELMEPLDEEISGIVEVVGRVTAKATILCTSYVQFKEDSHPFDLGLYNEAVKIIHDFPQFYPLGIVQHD
T2 sequence (P27694 181-422): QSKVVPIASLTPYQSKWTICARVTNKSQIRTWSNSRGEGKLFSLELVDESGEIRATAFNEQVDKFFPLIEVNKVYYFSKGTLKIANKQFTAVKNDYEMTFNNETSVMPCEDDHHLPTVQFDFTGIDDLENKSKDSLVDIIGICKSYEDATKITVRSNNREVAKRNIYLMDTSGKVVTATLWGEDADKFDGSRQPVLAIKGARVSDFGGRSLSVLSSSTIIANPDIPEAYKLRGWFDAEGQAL

IC50 [1] [µM]	IC50 [2] [µM]	DNA binding activity (displacement of SYBR-Green intercalator) [3]	cellular uptake (in words) (H460 NSCLC cells [4])	solubility ([6]; aqueous buffer at pH 9.5, pH 9.5, aqueous buffer) [µM]	solubility ([6]; aqueous buffer, pH 4, citrate buffer) [µM]	solubility ([6]; aqueous buffer, pH 7, phosphate buffer) [µM]	Compound	cellular anticancer activity compared to compound 9 (H460 NSCLC cells [5])	synergy (combination index) with DNA damaging therapeutics cisplatin and etoposide (H460 NSCLC cells [7])
1.61 ± 0.04	11.7 ± 0.3	No significant DNA binding activity	increased uptake				CCOc1ccc2cc(C3CC(c4ccc(-c5ccc(Cl)nc5)cc4)=NN3C(=O)CCCC(=O)O)c(Cl)nc2c1 (centres unmarked) [Compound 26, 5-(5-(2-Chloro-7-ethoxyquinolin-3-yl)-3-(4-(6-chloropyridin-3-yl)phenyl)-4,5-dihydro-1H-pyrazol-1-yl)-5-oxopentanoic acid]	increase in cellular anticancer activity	
15.3 ± 1.42			relatively poor uptake	112.5 ± 0.74 (≈ 66.6 µg/mL)	0.76 ± 0.35 (≈ 0.45 µg/mL)	3.31 ± 0.36 (≈ 1.96 µg/mL)	CCOc1ccc2cc(C3CC(c4ccc(I)cc4)=NN3C(=O)CCCC(=O)O)c(Cl)nc2c1 (centres unmarked) [Compound 9, 5-(5-(2-Chloro-7-ethoxyquinolin-3-yl)-3-(4-iodophenyl)-4,5-dihydro-1H-pyrazol-1-yl)-5-oxopentanoic acid]		showed synergy but not as robust of activity as compound 8
